In US5807854A, “Pyrimidone derivatives with antifungal activity” (J. Uriah & Cia. S.A., priority 1995, dated 1998):
In brackets after ≈: the same amount, converted by molar mass.

Legend:
[1] = system: C. albicans; test: In vitro activity by the agar dilution method, C. albicans; format: cell-based; conditions: Candida albicans; Kimmig's agar, 25° C., 48 h; read-out: MIC (minimal inhibitory concentration), C. albicans
Experimental: (§1) In vitro activity was evaluated against C. albicans, C. krusei, and Aspergillus fumigatus by the agar dilution method. Test strains were either clinical isolates or were obtained from ATCC. Stock solutions containing 800 μg/mL were prepared by solving the test products in 50% ethanol. The culture medium used was Kimmig's agar (K. A., E. Merck) supplemented with 0.5% glycerol. Plates containing serial dilutions (80 to 0.025 gg/imL) of the test products were inoculated with 10 μL of the fungal inocula, containing 10^5 colony forming units (cfu)/mL. Plates were incubated at 25° C. during 48 h for Candida sp. and during 5 days for Apergillus fumigatus. Following incubation MICs (minimal inhibitory concentrations) were determined.

[2] = system: C. krusei; test: In vitro activity by the agar dilution method, C. krusei; format: cell-based; conditions: Pichia kudriavzevii; Kimmig's agar, 25° C., 48 h; read-out: MIC (minimal inhibitory concentration), C. krusei
Experimental: as §1

[3] = system: Aspergillus fumigatus; test: In vitro activity by the agar dilution method, Aspergillus fumigatus; format: cell-based; conditions: 120 h, Kimmig's agar, 25° C., 5 days, read-out: MIC (minimal inhibitory concentration), Asp. fumigatus
Experimental: as §1

[4] = system: Candida albicans; test: In Vivo Activity (Systemic Candidiasis); conditions: po, 576 h, orally at 1 mg/kg at 1, 4 and 24 h after infection, male mice, i.v. infection, read-out: protection on the day where all the animals in the control group had died
Experimental: Groups of 10 male mice were inoculated i.v. with 0.2 mL of a suspension containing (2-8)×10^7 cfu/mL of Candida albicans. Compounds were administered orally at 1 mg/kg (or at 10 mg/kg for those compounds marked with an asterisk) at times 1, 4 and 24 h after infection.

MIC [1] | MIC [2] | MIC [3] | Compound | responders at 1 mg/kg [4]
≤ 0.03 µg/mL | 0.31 µg/mL (≈ 0.699 µM) | 2.5 µg/mL (≈ 5.64 µM) | CSc1ccc2c(=O)n([C@H](C)[C@](O)(Cn3cncn3)c3ccc(F)cc3F)cnc2c1 [Example 50, (1R,2R)-3-[2-(2,4-Difluorophenyl)-2-hydroxy-1-methyl-3-(1H-1,2,4-triazol-1-yl)propyl]-7-(methylthio)quinazolin-4(3H)-one] | 100%
0.07 µg/mL (≈ 0.176 µM) | 5 µg/mL (≈ 12.6 µM) | 10 µg/mL (≈ 25.2 µM) | C[C@@H](n1cnc2ccccc2c1=O)[C@](O)(Cn1cncn1)c1ccc(F)cc1F [Example 5, (1R,2R)-3-[2-(2,4-Difluorophenyl)-2-hydroxy-1-methyl-3-(1H-1,2,4-triazol-1-yl)propyl]quinazolin-4(3H)-one] | 
 |  |  | C[C@@H](n1cnc2cc(-c3ccc(Cl)cc3)sc2c1=O)[C@](O)(Cn1cncn1)c1ccc(Cl)cc1Cl [Example 54, (1R,2R)-6-(4-Chlorophenyl)-3-[2-(2,4-dichlorophenyl)-2-hydroxy-1-methyl-3-(1H-1,2,4-triazol-1-yl)propyl]thieno[3,2-d]pyrimidin-4(3H)-one] | 100%
≤ 0.03 µg/mL | 2.5 µg/mL (≈ 6.08 µM) | 40 µg/mL (≈ 97.2 µM) | Cc1ccc2ncn([C@H](C)[C@](O)(Cn3cncn3)c3ccc(F)cc3F)c(=O)c2c1 [Example 24, (1R,2R)-3-[2-(2,4-Difluorophenyl)-2-hydroxy-1-methyl-3-(1H-1,2,4-triazol-1-yl)propyl]-6-methylquinazolin-4(3H)-one] | 
0.15 µg/mL (≈ 0.327 µM) | 0.63 µg/mL (≈ 1.37 µM) | 10 µg/mL (≈ 21.8 µM) | C[C@@H](n1cnc2cc(N(C)C)c(F)cc2c1=O)[C@](O)(Cn1cncn1)c1ccc(F)cc1F [Example 4, (1R,2R)-3-[2-(2,4-Difluorophenyl)-2-hydroxy-1-methyl-3-(1H-1,2,4-triazol-1-yl)propyl]-7-dimethylamino-6-fluoroquinazolin-4(3H)-one] | 
 |  |  | C[C@@H](n1cnc2cc(-c3ccc(C#N)cc3)sc2c1=O)[C@](O)(Cn1cncn1)c1ccc(Cl)cc1Cl [Example 55, (1R,2R)-4-[3-[2-(2,4-Dichlorophenyl)-2-hydroxy-1-methyl-3-(1H-1,2,4-triazol-1-yl)propyl]-4-oxo-3,4-dihydrothieno[3,2-d]pyrimidin-6-yl]benzonitrile] | 100%
 |  |  | C[C@@H](n1cnc2cc(-c3ccc(C(=N)NO)cc3)sc2c1=O)[C@](O)(Cn1cncn1)c1ccc(F)cc1F [Example 62, (1R,2R)-3-[2-(2,4-Difluorophenyl)-2-hydroxy-1-methyl-3-(1H-1,2,4-triazol-1-yl)propyl]-6-[4-[(hydroxyamino)iminomethyl]phenyl]thieno[3,2-d]pyrimidin-4(3H)-one] | 100%
≤ 0.03 µg/mL | 5 µg/mL (≈ 11.2 µM) | 20 µg/mL (≈ 44.7 µM) | C[C@@H](n1cnc2cc3ccccc3cc2c1=O)[C@](O)(Cn1cncn1)c1ccc(F)cc1F [Example 38, (1R,2R)-3-[2-(2,4-Difluorophenyl)-2-hydroxy-1-methyl-3-(1H-1,2,4-triazol-1-yl)propyl]benzo[g]quinazolin4(3H)-one] | 
 |  |  | C[C@@H](n1cnc2cc(-n3cncn3)ccc2c1=O)[C@](O)(Cn1cncn1)c1ccc(F)cc1F [Example 48, (1R,2)-3-[2-(2,4-Difluorophenyl)-2-hydroxy-1-methyl-3-(1H-1,2,4-triazol-1-yl)propyl]-7-(1H-1,2,4-triazol-1-yl)quinazolin-4(3H)-one] | 100%
0.07 µg/mL (≈ 0.124 µM) | 10 µg/mL (≈ 17.7 µM) | 20 µg/mL (≈ 35.4 µM) | C[C@@H](n1cnc2cc(-c3ccc(C(=N)NCCN)cc3)sc2c1=O)[C@](O)(Cn1cncn1)c1ccc(F)cc1F [Example 70, (1R,2R)-6-[4-[(2-Aminoethylamino)(imino)methyl]phenyl]-3-[2-(2,4-difluorophenyl)-2-hydroxy-1-methyl-3-(1H-1,2,4-triazol-1-yl)propyl]thieno[3,2-d]pyrimidin-4(3H)-one] | 
 |  |  | C[C@@H](n1cnc2cc(-c3ccc(C4=NCCO4)cc3)sc2c1=O)[C@](O)(Cn1cncn1)c1ccc(F)cc1F [Example 69, (1R,2R)-3-[2-(2,4-Difluorophenyl)-2-hydroxy-1-methyl-3-(1-H-1,2,4-triazol-1-yl)propyl]-6-[4-(4,5-dihydrooxazol-2-yl)phenyl]thieno[3,2-d]pyrimidin-4(3H)-one] | 100%
≤ 0.03 µg/mL | 1.25 µg/mL (≈ 3.01 µM) | 1.25 µg/mL (≈ 3.01 µM) | C[C@@H](n1cnc2cc(F)ccc2c1=O)[C@](O)(Cn1cncn1)c1ccc(F)cc1F [Example 12, (1R,2R)-3-[2-(2,4-Difluorophenyl)-2-hydroxy-1-methyl-3-(1H-1,2,4-triazol-1-yl)propyl]-7-fluoroquinazolin-4(3H)-one] | 
 |  |  | C[C@@H](n1cnc2cc(-c3ccc(C(=N)NC#N)cc3)sc2c1=O)[C@](O)(Cn1cncn1)c1ccc(F)cc1F [Example 65, (1R,2R)-6-[4-[Cyanoamino(imino)methyl]phenyl]-3-[2-(2,4-difluorophenyl)-2-hydroxy-1-methyl-3-(1H-1,2,4-triazol-1-yl)propyl]thieno[3,2-d]pyrimidin-4(3H)-one] | 100%
0.31 µg/mL (≈ 0.577 µM) | 5 µg/mL (≈ 9.3 µM) | 5 µg/mL (≈ 9.3 µM) | C[C@@H](n1cnc2cc(S(=O)(=O)c3ccccc3)ccc2c1=O)[C@](O)(Cn1cncn1)c1ccc(F)cc1F [Example 61, (1R,2R)-3-[2-(2,4-Difluorophenyl)-2-hydroxy-1-methyl-3-(1H-1,2,4-triazol-1-yl)propyl]-7-phenylsulfonylquinazolin-4(3H)-one] | 
 |  |  | C[C@@H](n1cnc2c(Cl)cc(Cl)cc2c1=O)[C@](O)(Cn1cncn1)c1ccc(F)cc1F [Example 9, (1R,2R)-6,8Dichloro-3-[2-(2,4-difluorophenyl)-2-hydroxy-1-methyl-3-(1H-1,2,4-triazol-1-yl)propyl]quinazolin4(3H)-one] | 100%
 |  |  | C[C@@H](n1cnc2cc(-c3ccc(C(F)(F)F)cc3)sc2c1=O)[C@](O)(Cn1cncn1)c1ccc(F)cc1F [Example 33, (1R,2R)-3-[2-(2,4-Difluorophenyl)-2-hydroxy-1-methyl-3-(1H-1,2,4-triazol-1-yl)propyl]-6-[(4-trifluoromethyl)phenyl]thieno[3,2-d]pyrimidin-4(3H)-one] | 100%
 |  |  | C[C@@H](n1cnc2cc(-c3ccc(OCC(F)(F)C(F)F)cc3)sc2c1=O)[C@](O)(Cn1cncn1)c1ccc(F)cc1F [Example 34, (1R,2R)-3-[2-(2,4-Difluorophenyl)-2-hydroxy-1-methyl-3-(1H-1,2,4-triazol-1-yl)propyl]-6-[4-(2,2,3,3-tetrafluoropropoxy)phenyl]thieno[3,2-d]pyrimidin-4(3H)-one] | 100%
 |  |  | C[C@@H](n1cnc2cc(S(C)(=O)=O)ccc2c1=O)[C@](O)(Cn1cncn1)c1ccc(F)cc1F [Example 51, (1R,2R)-3-[2-(2,4-Difluorophenyl)-2-hydroxy-1-methyl-3-(1H-1,2,4-triazol-1-yl)propyl]-7-(methylsulfonyl)quinazolin-4(3H)-one] | 100%
 |  |  | C[C@@H](n1cnc2cc(C(F)(F)F)ccc2c1=O)[C@](O)(Cn1cncn1)c1ccc(Cl)cc1Cl [Example 53, (1R,2R)-3-[2-(2,4-Dichlorophenyl)-2-hydroxy-1-methyl-3-(1H-1,2,4-triazol-1-yl)propyl]-7-trifluoromethylquinazolin-4(3H)-one] | 100%
 |  |  | C[C@@H](n1cnc2ccc(Br)cc2c1=O)[C@](O)(Cn1cncn1)c1ccc(F)cc1F [Example 10, (1R,2R)-6-Bromo-3-[2-(2,4-difluorophenyl)-2-hydroxy-1-methyl-3-(1H-1,2,4-triazol-1-yl)propyl]quinazolin4(3H)-one] | 100%
 |  |  | C[C@@H](n1cnc2cc(Cl)ccc2c1=O)[C@](O)(Cn1cncn1)c1ccc(Cl)cc1Cl [Example 52, (1R,2R)-7-Chloro-3-[2-(2,4-dichlorophenyl)-2-hydroxy-1-methyl-3-(1H-1,2,4-triazol-1-yl)propyl]quinazolin-4(3H)-one] | 100%
 |  |  | C[C@@H](n1cnc2cc(OCC(F)F)ccc2c1=O)[C@](O)(Cn1cncn1)c1ccc(F)cc1F [Example 19, (1R,2R)-7-(2,2-Difluoroethoxy)-3-[2-(2,4-difluorophenyl)-2-hydroxy-1-methyl-3-(1H-1,2,4-triazol-1-yl)propyl]quinazolin-4(3H)-one] | 100%
≤ 0.03 µg/mL | 0.31 µg/mL (≈ 0.613 µM) | 0.63 µg/mL (≈ 1.25 µM) | C[C@@H](n1cnc2cc(Sc3ccccc3)ccc2c1=O)[C@](O)(Cn1cncn1)c1ccc(F)cc1F [Example 60, (1R,2R)-3-[2-(2,4-Difluorophenyl)-2-hydroxy-1-methyl-3-(1H-1,2,4-triazol-1-yl)propyl]-7-(phenylthio)quinazolin-4(3H)-one] | 
≤ 0.03 µg/mL | 2.5 µg/mL (≈ 4.97 µM) | 5 µg/mL (≈ 9.95 µM) | C[C@@H](n1cnc2cc(NCc3ccccc3)ccc2c1=O)[C@](O)(Cn1cncn1)c1ccc(F)cc1F [Example 71, (1R,2R)-7-Benzylamino-3-[2-(2,4-difluorophenyl)-2-hydroxy-1-methyl-3-(1H-1,2,4-triazol-1-yl)propyl]quinazolin-4(3H)-one] | 

Compound | MIC [1] | MIC [2] | MIC [3] | responders at 1 mg/kg [4]
CC(=O)ONC(=N)c1ccc(-c2cc3ncn([C@H](C)[C@](O)(Cn4cncn4)c4ccc(F)cc4F)c(=O)c3s2)cc1 [Example 68] | 0.31 µg/mL (≈ 0.535 µM) | 10 µg/mL (≈ 17.3 µM) | 20 µg/mL (≈ 34.5 µM) | 
